The results in this text go back to ChEMBL document CHEMBL6114953, “De novo discovery of cyclic peptide inhibitors of IL-11 signaling” (Bioorg Med Chem, 2025).

For orientation: Ki means the dissociation constant of the complex between target and ligand, obtained from inhibition or displacement.

This experiment in a line: Inhibition of his-tagged recombinant human IL-11 (22 to 199 residues) expressed in HEK293 cells/biotinylated recombinant human IL-11Ralpha (24 to 370 residues) expressed in HEK293 cells incubated for 1 hr by AlphaLISA assay. It is filed as cell-based. (Bead proximity is the source of the signal in Alpha formats.)

Where a SMILES comes first, the peptide text is derived from it. Bridges are numbered along the chain shown (N, C = ends). [ ]: non-standard residue; d: D form. ξ: configuration not given here. Met(O) = CS(=O)CC[C@H](N)C(=O)O; ξH = NC(Cc1c[nH]cn1)C(=O)O; Nle = CCCC[C@H](N)C(=O)O

On to `CSCC[C@@H]1NC(=O)[C@H](Cc2c[nH]cn2)NC(=O)[C@H](CO)NC(=O)[C@@H](NC(=O)[C@H](Cc2c[nH]c3ccccc23)NC(=O)[C@H](Cc2ccc(O)cc2)NC(=O)[C@H](Cc2ccccc2)NC(=O)[C@H](CCC(N)=O)NC(=O)[C@@H](NC(=O)[C@@H](NC(C)=O)[C@@H](C)O)C(C)C)CSSC[C@@H](C(=O)N[C@@H](Cc2c[nH]c3ccccc23)C(=O)N[C@@H](CCCNC(=N)N)C(N)=O)NC(=O)[C@H](C(C)C)NC(=O)[C@H]([C@@H](C)O)NC(=O)[C@H]([C@@H](C)O)NC(=O)[C@H](Cc2ccc(O)cc2)NC(=O)[C@H](Cc2ccc(O)cc2)NC1=O` (Ac-TVQFYWCSHMYYTTVCWR-NH2; disulfide 7-16), for which the Ki turned out to be 900 nM.

For the molecule `CC(C)[C@H](NC(=O)[C@@H](NC(=O)[C@H](CCC(N)=O)NC(=O)[C@H](C)N)[C@@H](C)O)C(=O)N[C@@H](CCC(N)=O)C(=O)N[C@@H](Cc1ccccc1)C(=O)N[C@@H](Cc1ccc(O)cc1)C(=O)N[C@@H](Cc1c[nH]c2ccccc12)C(=O)N[C@H]1CSSC[C@@H](C(=O)N[C@@H](Cc2c[nH]c3ccccc23)C(=O)N[C@@H](CCCNC(=N)N)C(N)=O)NC(=O)[C@H](C(C)C)NC(=O)[C@H]([C@@H](C)O)NC(=O)[C@H]([C@@H](C)O)NC(=O)[C@H](Cc2ccc(O)cc2)NC(=O)[C@H](Cc2ccc(O)cc2)NC(=O)[C@H](CC[S+](C)[O-])NC(=O)[C@H](Cc2c[nH]cn2)NC(=O)[C@H](CO)NC1=O` (stereo not given in full) (H-AQTVQFYWCSH[Met(O)]YYTTVCWR-NH2; disulfide 9-18), the Ki stood at 320 nM.

As for `CCCC[C@@H]1NC(=O)[C@H](Cc2c[nH]cn2)NC(=O)[C@H](CO)NC(=O)[C@@H](NC(=O)[C@H](Cc2c[nH]c3ccccc23)NC(=O)[C@H](Cc2ccc(O)cc2)NC(=O)[C@H](Cc2ccccc2)NC(=O)[C@H](CCC(N)=O)NC(=O)[C@@H](NC(=O)[C@@H](NC(=O)[C@H](CCC(N)=O)NC(=O)[C@H](C)N)[C@@H](C)O)C(C)C)CSSC[C@@H](C(=O)N[C@@H](Cc2c[nH]c3ccccc23)C(=O)N[C@@H](CCCNC(=N)N)C(N)=O)NC(=O)[C@H](C(C)C)NC(=O)[C@H]([C@@H](C)O)NC(=O)[C@H]([C@@H](C)O)NC(=O)[C@H](Cc2ccc(O)cc2)NC(=O)[C@H](Cc2ccc(O)cc2)NC1=O` (H-AQTVQFYWCSH[Nle]YYTTVCWR-NH2; disulfide 9-18), the Ki worked out at 260 nM.

As for `CSCC[C@@H]1NC(=O)[C@H](Cc2c[nH]cn2)NC(=O)[C@H](CO)NC(=O)[C@@H](NC(=O)[C@H](Cc2c[nH]c3ccccc23)NC(=O)[C@H](Cc2ccc(O)cc2)NC(=O)[C@H](Cc2ccccc2)NC(=O)[C@H](CCC(=O)O)NC(=O)[C@@H](NC(=O)[C@@H](NC(=O)[C@H](CCC(=O)O)NC(=O)[C@H](C)N)[C@@H](C)O)C(C)C)CSSC[C@@H](C(=O)N[C@@H](Cc2c[nH]c3ccccc23)C(=O)N[C@@H](CCCNC(=N)N)C(N)=O)NC(=O)[C@H](C(C)C)NC(=O)[C@H]([C@@H](C)O)NC(=O)[C@H]([C@@H](C)O)NC(=O)[C@H](Cc2ccc(O)cc2)NC(=O)[C@H](Cc2ccc(O)cc2)NC1=O` (H-AETVEFYWCSHMYYTTVCWR-NH2; disulfide 9-18), the inhibition constant (Ki) is 3900 nM.

With `CC(C)C[C@@H]1NC(=O)[C@H](Cc2c[nH]c3ccccc23)NC(=O)[C@@H](NC(=O)[C@H](Cc2ccccc2)NC(=O)[C@H](CCC(=O)O)NC(=O)[C@@H](NC(=O)[C@@H](NC(=O)[C@H](CCC(=O)O)NC(=O)[C@H](C)N)[C@@H](C)O)C(C)C)CSSC[C@@H](C(N)=O)NC(=O)[C@H](CCC(N)=O)NC(=O)[C@H](CCC(=O)O)NC(=O)[C@H](Cc2c[nH]c3ccccc23)NC(=O)[C@H](Cc2c[nH]c3ccccc23)NC(=O)[C@H](CCC(N)=O)NC(=O)[C@H](Cc2ccccc2)NC(=O)[C@@H]2CCCN2C1=O` (H-AETVEFCWLPFQWWEQC-NH2; disulfide 7-17), the inhibition constant (Ki) was found to be 350 nM.

In the case of `CC(C)C[C@@H]1NC(=O)[C@H](CCC(=O)O)NC(=O)[C@H](Cc2ccccc2)NC(=O)[C@H](CCC(N)=O)NC(=O)[C@@H]2CCCN2C(=O)[C@H](Cc2c[nH]c3ccccc23)NC(=O)[C@H](C(C)C)NC(=O)[C@H](Cc2ccc(O)cc2)NC(=O)[C@@H](NC(=O)[C@H](Cc2ccccc2)NC(=O)[C@H](CCC(=O)O)NC(=O)[C@@H](NC(=O)[C@@H](NC(=O)[C@H](CCC(=O)O)NC(=O)[C@H](C)N)[C@@H](C)O)C(C)C)CSSC[C@@H](C(N)=O)NC(=O)[C@H](C(C)C)NC1=O` (H-AETVEFCYVWPQFELVC-NH2; disulfide 7-17), the Ki stood at 310 nM.

Regarding `CC[C@H](C)[C@@H]1NC(=O)[C@H](Cc2c[nH]cn2)NC(=O)[C@H](Cc2c[nH]cn2)NC(=O)[C@H](C)NC(=O)[C@@H](NC(=O)[C@H](Cc2ccccc2)NC(=O)[C@H](CCC(=O)O)NC(=O)[C@@H](NC(=O)[C@@H](NC(=O)[C@H](CCC(=O)O)NC(=O)[C@H](C)N)[C@@H](C)O)C(C)C)CSSC[C@@H](C(N)=O)NC(=O)[C@H](Cc2c[nH]c3ccccc23)NC(=O)[C@H](Cc2c[nH]c3ccccc23)NC(=O)[C@H](Cc2c[nH]c3ccccc23)NC(=O)[C@H](C)NC(=O)[C@H](Cc2ccc(O)cc2)NC1=O` (H-AETVEFCAHHIYAWWWC-NH2; disulfide 7-17), the Ki worked out at 2400 nM.

As for `CC(=O)N[C@H]1CSSC[C@@H](C(N)=O)NC(=O)[C@H](C(C)C)NC(=O)[C@H](Cc2ccc(O)cc2)NC(=O)[C@H](Cc2c[nH]c3ccccc23)NC(=O)[C@H](Cc2c[nH]c3ccccc23)NC(=O)[C@H](Cc2c[nH]cn2)NC(=O)[C@H](Cc2ccc(O)cc2)NC(=O)[C@@H]2CCCN2C(=O)[C@H](CCCCN)NC(=O)[C@H](Cc2c[nH]c3ccccc23)NC1=O` (Ac-CWKPYHWWYVC-NH2; disulfide 1-11), the inhibition constant Ki stood at 2500 nM.

For the molecule `CC(=O)N[C@@H](Cc1ccc(O)cc1)C(=O)N[C@@H](Cc1c[nH]c2ccccc12)C(=O)N[C@H]1CSSC[C@@H](C(=O)N[C@@H](Cc2c[nH]c3ccccc23)C(=O)N[C@@H](CCCNC(=N)N)C(N)=O)NC(=O)[C@H](C(C)C)NC(=O)[C@H]([C@@H](C)O)NC(=O)[C@H]([C@@H](C)O)NC(=O)[C@H](Cc2ccc(O)cc2)NC(=O)[C@H](Cc2ccc(O)cc2)NC(=O)CNC(=O)[C@H](Cc2c[nH]cn2)NC(=O)[C@H](CO)NC1=O` (Ac-YWCSHGYYTTVCWR-NH2; disulfide 3-12), the inhibition constant (Ki) is 1700 nM.

As for `CSCC[C@@H]1NC(=O)[C@H](Cc2c[nH]cn2)NC(=O)[C@H](CO)NC(=O)[C@@H](NC(=O)[C@H](Cc2c[nH]c3ccccc23)NC(=O)[C@H](Cc2ccc(O)cc2)NC(C)=O)CSSC[C@@H](C(=O)N[C@@H](Cc2c[nH]c3ccccc23)C(N)=O)NC(=O)[C@H](C(C)C)NC(=O)[C@H]([C@@H](C)O)NC(=O)[C@H]([C@@H](C)O)NC(=O)[C@H](Cc2ccc(O)cc2)NC(=O)[C@H](Cc2ccc(O)cc2)NC1=O` (Ac-YWCSHMYYTTVCW-NH2; disulfide 3-12), the Ki was above 28000 nM.

With `CC(C)C[C@@H]1NC(=O)[C@H](Cc2c[nH]c3ccccc23)NC(=O)[C@@H](NC(=O)[C@H](Cc2ccccc2)NC(=O)[C@H](CCC(=O)O)NC(=O)[C@@H](NC(=O)[C@@H](NC(=O)[C@H](CCC(=O)O)NC(=O)[C@H](C)N)[C@@H](C)O)C(C)C)CSSC[C@@H](C(N)=O)NC(=O)[C@H](CCC(=O)O)NC(=O)[C@H](Cc2ccc(O)cc2)NC(=O)[C@H](Cc2c[nH]c3ccccc23)NC(=O)[C@H](Cc2ccc(O)cc2)NC(=O)C(Cc2c[nH]cn2)NC(=O)[C@H](Cc2c[nH]c3ccccc23)NC(=O)[C@@H]2CCCN2C1=O` (stereo not given in full) (H-AETVEFCWLPW[ξH]YWYEC-NH2; disulfide 7-17), the Ki was found to be 1300 nM.

Consider `CSCC[C@@H]1NC(=O)[C@H](Cc2c[nH]cn2)NC(=O)[C@H](CO)NC(=O)[C@@H](NC(=O)[C@H](Cc2c[nH]c3ccccc23)NC(=O)[C@H](Cc2ccc(O)cc2)NC(=O)[C@H](Cc2ccccc2)NC(=O)[C@H](CCC(N)=O)NC(=O)[C@@H](NC(=O)[C@@H](NC(=O)[C@H](CCC(N)=O)NC(=O)[C@H](C)N)[C@@H](C)O)C(C)C)CSSC[C@@H](C(=O)N[C@@H](Cc2c[nH]c3ccccc23)C(=O)N[C@@H](CCCNC(=N)N)C(N)=O)NC(=O)[C@H](C(C)C)NC(=O)[C@H]([C@@H](C)O)NC(=O)[C@H]([C@@H](C)O)NC(=O)[C@H](Cc2ccc(O)cc2)NC(=O)[C@H](Cc2ccc(O)cc2)NC1=O` (H-AQTVQFYWCSHMYYTTVCWR-NH2; disulfide 9-18), for which the inhibitory constant (Ki) stood at 180 nM.

Regarding `CSCC[C@@H]1NC(=O)[C@H](Cc2c[nH]cn2)NC(=O)[C@H](CO)NC(=O)[C@@H](NC(=O)[C@H](Cc2c[nH]c3ccccc23)NC(=O)[C@H](Cc2ccc(O)cc2)NC(=O)[C@H](Cc2ccccc2)NC(=O)[C@H](CCC(N)=O)NC(=O)[C@@H](NC(C)=O)C(C)C)CSSC[C@@H](C(=O)N[C@@H](Cc2c[nH]c3ccccc23)C(=O)N[C@@H](CCCNC(=N)N)C(N)=O)NC(=O)[C@H](C(C)C)NC(=O)[C@H]([C@@H](C)O)NC(=O)[C@H]([C@@H](C)O)NC(=O)[C@H](Cc2ccc(O)cc2)NC(=O)[C@H](Cc2ccc(O)cc2)NC1=O` (Ac-VQFYWCSHMYYTTVCWR-NH2; disulfide 6-15), the inhibition constant Ki was 700 nM.

Take `CSCC[C@@H]1NC(=O)[C@H](Cc2c[nH]cn2)NC(=O)[C@H](CO)NC(=O)[C@@H](NC(=O)[C@H](Cc2c[nH]c3ccccc23)NC(C)=O)CSSC[C@@H](C(=O)N[C@@H](Cc2c[nH]c3ccccc23)C(=O)N[C@@H](CCCNC(=N)N)C(N)=O)NC(=O)[C@H](C(C)C)NC(=O)[C@H]([C@@H](C)O)NC(=O)[C@H]([C@@H](C)O)NC(=O)[C@H](Cc2ccc(O)cc2)NC(=O)[C@H](Cc2ccc(O)cc2)NC1=O` (Ac-WCSHMYYTTVCWR-NH2; disulfide 2-11): the Ki is 3200 nM.

For `CSCC[C@@H]1NC(=O)[C@H](Cc2c[nH]cn2)NC(=O)[C@H](CO)NC(=O)[C@@H](NC(=O)[C@H](Cc2c[nH]c3ccccc23)NC(=O)[C@H](Cc2ccc(O)cc2)NC(=O)[C@H](Cc2ccccc2)NC(=O)[C@H](CCC(N)=O)NC(=O)[C@@H](NC(=O)[C@@H](NC(=O)[C@H](CCC(N)=O)NC(C)=O)[C@@H](C)O)C(C)C)CSSC[C@@H](C(=O)N[C@@H](Cc2c[nH]c3ccccc23)C(=O)N[C@@H](CCCNC(=N)N)C(N)=O)NC(=O)[C@H](C(C)C)NC(=O)[C@H]([C@@H](C)O)NC(=O)[C@H]([C@@H](C)O)NC(=O)[C@H](Cc2ccc(O)cc2)NC(=O)[C@H](Cc2ccc(O)cc2)NC1=O` (Ac-QTVQFYWCSHMYYTTVCWR-NH2; disulfide 8-17), the inhibition constant (Ki) stood at 800 nM.
